# Measurements taken from patent US11357786B2, “Synthetic disugar hydrocarbons as natural analogs to control microbial behaviors” (Syracuse University, priority 2014, dated 2022).
# Entries after “also recorded” stand apart in the source; their conditions may differ.
# Key:
# Assay type in all cases: cell-based, Pseudomonas aeruginosa
# [1] = tested on: nonswarming P. aeruginosa mutant rhlA; assay: Swarming motility of nonswarming rhlA mutant on soft agar (reactivation / agonist assay); details: for Reactivation of swarming motility of rhlA mutant: concentration not given; for Swarming reactivation of rhlA mutant: 110 μM in soft agar; for Concentration that suppresses reactivation of rhlA swarming by DβC: co-administered with 40 μM DβC
# In short: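 rhlA transposon mutant of PAO1 (3 μl, OD600 0.4–0.6) inoculated on M8 soft agar (0.2% glucose, 0.5% casamino acids, 1 mM MgSO4, 0.5% agar) with test compound to find swarming agonists. Incubated 12 h at 37 °C plus 12 h at room temperature; swarm area measured by weighing paper cut-outs of imaged swarms.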
# PAO1 biofilm = assay: Crystal violet based static biofilm inhibition assay, DSHs in LB media (Examples 2 and 4); details: for Anti-biofilm activity (biofilm inhibition): concentration not given; for Inhibition of PAO1 biofilm in presence of pili peptide PAO(128-144)ox: agent 85 μM + pili peptide 85 μM; for Inhibition of PAO1 biofilm in presence of scrambled pili peptide: agent 85 μM + scrambled pili peptide 85 μM
# In short: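 PAO1 subculture (OD600 ~0.1) was grown statically in LB at 37° C for 24 h with or without DSHs (screened at 160 μM). Surface-attached biofilm was then stained with 0.1% crystal violet, solubilised in 30% AcOH and read at 600 nm. Values are the mean of 4 wells.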
# wild type PAO1 = assay: Swarming motility of wild type PAO1 on soft agar (antagonist assay); details: for Swarming of wild type PAO1: 110 μM in soft agar; for Effect on PAO1 swarming: concentration not given; for Concentration of activity reversal for swarming inhibition of PAO1 (transition concentration): soft agar
# In short: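 Wild-type PAO1 culture (OD600 ~0.4–0.6, 3 μl) spotted on M8 swarm agar with 0.2% glucose, 0.5% casamino acids, 1 mM MgSO4 and 0.5% agar. Plates incubated 12 h at 37 °C then 12 h at room temperature; swarm area measured by cutting and weighing printed plate images.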
# [2] = 85 μM in soft agar (0.5%), 24 h
Compound,Anti-biofilm activity (biofilm inhibition) (PAO1 biofilm),"Swarming motility of wild type PAO1 (wild type PAO1; 85 μM in soft agar, 24 h)",Swarming of wild type PAO1 (wild type PAO1; 24 h),Effect on PAO1 swarming (wild type PAO1),"Swarming motility of rhlA mutant [1, 2]",Swarming reactivation of rhlA mutant ([1]; 24 h),"IC50 (PAO1 biofilm; Example 2, FIG. 18)","IC50 (PAO1 biofilm; Example 4, FIG. 30)",Swarming motility of wild type PAO1 (wild type PAO1; 20 μM),Concentration of activity reversal for swarming inhibition of PAO1 (transition concentration) (wild type PAO1),Concentration of activity reversal for swarming promotion of rhlA mutant (transition concentration) ([1]; soft agar),other results
"CCCCCCCCCCCCOCCOCCOCCOCCO [C12EG4OH, tetra (ethylene glycol) monododecyl ether, reference compound]",did not incur any bioactivity,,,,,,,,,,,Reactivation of swarming motility of rhlA mutant [1]: do not reactivate the swarming motility; also recorded: did not promote or reactivate; Reactivation of swarming motility of rhlA mutant ([1]; listed as C12EG5OH): did not incur any bioactivity
"CCCCCCCCCCCCOS(=O)(=O)[O-].[Na+] [SDS, sodium dodecyl sulfate, reference compound]",did not incur any bioactivity,,,,,,,,,,,Reactivation of swarming motility of rhlA mutant ([1]; sulfate): do not reactivate the swarming motility; also recorded: did not incur any bioactivity; also recorded: did not promote or reactivate
"CC(C)CCCC(C)CCCC(C)CCO[C@H]1O[C@H](CO)[C@@H](O[C@@H]2O[C@H](CO)[C@@H](O)[C@H](O)[C@H]2O)[C@H](O)[C@H]1O (stereo partly drawn) [SFαC (13), saturated farnesyl-α-cellobioside]",potent PAO1 biofilm inhibitors,inhibited the swarming motility of wild type PAO1,completely inhibited the swarming of wt PAO1,inhibitors for PAO1 swarming motility,no apparent effect on rhlA,incapable of reactivating the swarming,~32.3 µM,~32 µM,,,,"Inhibition of PAO1 biofilm (PAO1 biofilm; 85 μM, agent alone): about 70%; Inhibition of PAO1 biofilm in presence of pili peptide PAO(128-144)ox (PAO1 biofilm): 30%; Inhibition of PAO1 biofilm in presence of pili peptide PAO(128-144)ox (PAO1 biofilm; listed as 13: SFαC): exhibited no inhibition of PA biofilm; Inhibition of PAO1 biofilm in presence of scrambled pili peptide (PAO1 biofilm): 65%; Inhibition of PAO1 biofilm in presence of scrambled pili peptide (PAO1 biofilm; listed as 13: SFαC): did not compromise the efficacy of the agent"
"CC(C)CCCC(C)CCCC(C)CCO[C@@H]1O[C@H](CO)[C@@H](O[C@@H]2O[C@H](CO)[C@@H](O)[C@H](O)[C@H]2O)[C@H](O)[C@H]1O (stereo partly drawn) [SFβC (12), saturated famesyl-β-cellobioside]",potent PAO1 biofilm inhibitors,inhibited the swarming motility of wild type PAO1,,inhibitors for PAO1 swarming motility,no apparent effect on rhlA,,4.9 µM,~9.9 µM,did inhibit the swarming activity of wild type PAO1,~10 to 20 µM,~8 µM,"Concentration exhibiting inhibition of PAO1 swarming (wild type PAO1): > 20 µM; Concentration exhibiting promotion of PAO1 swarming (wild type PAO1): < 10 µM; Swarm ring of wild type PAO1 as percent of PAO1 without DSHs (wild type PAO1; 20 μM): ~5%; Swarm ring area of wild type PAO1 (wild type PAO1; 20 μM, control 24 cm2): ~1.2 cm2; Swarming motility of wild type PAO1 (wild type PAO1; 20 μM, listed as 12): stronger inhibition than rhamnolipids; Swarming of wild type PAO1 (wild type PAO1; 24 h, listed as 12: SFbC): inhabits the swarming of wt PAO1; Swarming of wild type PAO1 (wild type PAO1; 24 h, listed as 12: SFβC): completely inhibited the swarming of wt PAO1; Concentration of activity reversal for swarming inhibition of PAO1 (transition concentration) (wild type PAO1; listed as 12): 10 to 20 µM; Swarming motility of rhlA mutant ([1]; 20 μM): did not activate the swarming motility; Swarming reactivation of rhlA mutant ([1]; 24 h, listed as 12: SFbC): does not reactivate the swarming of rhlA mutant; Swarming reactivation of rhlA mutant ([1]; 24 h, listed as 12: SFβC): incapable of reactivating the swarming; Concentration that suppresses reactivation of rhlA swarming by DβC [1]: 20 µM; Concentration that suppresses reactivation of rhlA swarming by DβC ([1]; listed as SFβC): ≤ 20 µM; Concentration range in which swarming of rhlA is reactivated ([1]; soft agar, 24 h): 5-12 W; Concentration of activity reversal for swarming promotion of rhlA mutant (transition concentration) ([1]; soft agar, listed as 12): 8 µM; Concentration up to which there is no interference with swarming reactivation of rhlA by DβC ([1]; with 40 μM DβC): up to 10 μM"
"CC(C)CCCC(C)CCCC(C)CCO[C@@H]1O[C@H](CO)[C@@H](O[C@H]2O[C@H](CO)[C@@H](O)[C@H](O)[C@H]2O)[C@H](O)[C@H]1O (stereo partly drawn) [SFβM (14), saturated farnesyl-β-maltoside]",potent PAO1 biofilm inhibitors,inhibited the swarming motility of wild type PAO1,completely inhibited the swarming of wt PAO1,,no apparent effect on rhlA,incapable of reactivating the swarming,~97.2 µM,~102 µM,stronger inhibition than rhamnolipids,~7.5 µM,~10 µM,"Concentration at which tendrils were induced in PAO1 (wild type PAO1): ~7.5 µM; Concentration of activity reversal for swarming inhibition of PAO1 (transition concentration) (wild type PAO1; listed as 14): 7.5 µM; Swarming area of rhlA ([1]; 10 μM, 24 h): ~14 cm2; Concentration of activity reversal for swarming promotion of rhlA mutant (transition concentration) ([1]; soft agar, listed as 14): 10 µM"
